Measurements from patent publication US5798379A, “UCS1025 compounds” (Kyowa Hakko Kogyo Co., Ltd., priority 1996, dated 1998).
Values after ≈ are worked out from the molar mass of the structure shown.

Tests used:
[1] = tested on: Proteus vulgaris ATCC 6897; assay: Antibacterial activity by agar dilution method; assay type: cell-based; settings: ATCC6897, pH 7, read-out: Minimum inhibitory concentration
Procedure: (§1) Antibacterial activity of UCS1025A and UCS1025B against various bacteria were measured.
(§2) The antibacterial activity was measured by an agar dilution method on media (pH 7) -composed of 3 g/L of Bacto-tryptone (manufactured by Difco), 3 g/L of meat extract, 1 g/L of yeast extract, 1 g/L of glucose and 16 g/L of agar. The antibacterial activity was shown by minimum inhibitory concentration (MIC).

[2] = tested on: Bacillus subtilis No. 10707; assay: Antibacterial activity by agar dilution method; assay type: cell-based; settings: pH 7, read-out: Minimum inhibitory concentration
Procedure: as §1, §2

[3] = tested on: Staphylococcus aureus ATCC 6538P; assay: Antibacterial activity by agar dilution method; assay type: cell-based; settings: ATCC6538P, pH 7, read-out: Minimum inhibitory concentration
Procedure: as §1, §2

[4] = tested on: Enterococcus hirae ATCC 10541; assay: Antibacterial activity by agar dilution method; assay type: cell-based; settings: ATCC10541, pH 7, read-out: Minimum inhibitory concentration
Procedure: as §1, §2

Solubility = assay type: physicochemical
human cystocarcinoma T24 = assay: Growth inhibition against human cystocarcinoma T24 cells (MTT); assay type: cell-based; settings: T-24, 72 hours
Procedure: (§3) Growth inhibition against human mammary carcinoma MCF-7, human cystocarcinoma T24, human epidermoid carcinoma A431 and human renal carcinoma ACHN cells:
(§4) Respective cells were dispensed into a 96 well microtiter plate (Nunc #167008) in 1×10^3 cells/well portions in the case of MCF-7 and T24 or in 1.5×lO^3 cells/well portions in the case of A431 and ACHN and cultured at 37° C. for 24 hours in a 5% carbon dioxide incubator. Thereafter, 30 mM of UCS1025A and 30 mM of UCS1025B were each serially diluted and added to the wells in 50 μl portions. The final concentration of each solution becomes 100 μM at the maximum at this stage. They were cultured again at 37° C. for 72 hours in the 5% carbon dioxide incubator. Five hours prior to the completion of the culturing, MTT [3-(4,5-dimethylthiazo-2-yl)-2,5-diphenyltetrazolium bromide, Sigma] which had been dissolved in the culture to a final concentration of 1 mg/ml was dispensed into the plate in 50 μl/well portions. After completion of the culturing, DMSO was dispensed in 150 μl/well portions, and the resulting plate was stirred vigorously using a plate mixer to dissolve MTT-formazan crystals completely. Thereafter, absorbance at 550 nm was measured using a microplate spectrophotometer M-SPmax250 (manufactured by Wako Pure Chemical Industries). The cell growth inhibition activity was shown by the 50% inhibitory concentration IC50

[5] = tested on: human epidermoid carcinoma A431; assay: Growth inhibition against human epidermoid carcinoma A431 cells (MTT); assay type: cell-based; settings: A-431, 72 hours
Procedure: as §3, §4

[6] = tested on: human renal carcinoma ACHN; assay: Growth inhibition against human renal carcinoma ACHN cells (MTT); assay type: cell-based; settings: 72 hours
Procedure: as §3, §4

[7] = tested on: human mammary carcinoma MCF-7; assay: Growth inhibition against human mammary carcinoma MCF-7 cells (MTT); assay type: cell-based; settings: MCF7, 72 hours
Procedure: as §3, §4

[8] = in methanol, ethyl acetate, chloroform, dimethylsulfoxide (DMSO)

Row | MIC [1] [µg/mL] | MIC [2] [µg/mL] | MIC [3] [µg/mL] | MIC [4] [µg/mL] | Solubility (Solubility; in hexane) | Solubility (Solubility; [8]) | IC50 (human cystocarcinoma T24) [µM] | IC50 [5] [µM] | IC50 [6] [µM] | IC50 [7] [µM] | SMILES
1 | 5.2 (≈ 14.5 µM) | 1.3 (≈ 3.62 µM) | 1.3 (≈ 3.62 µM) | 1.3 (≈ 3.62 µM) | hardly soluble | Soluble | 51 | 55 | 58 | 21 | CC1C=CC2CCCCC2C1C(=O)C1C(=O)N2CCC3C(=O)OC1C32O (centres unmarked) [UCS1025A]
2 | 83 (≈ 221 µM) | 83 (≈ 221 µM) | 42 (≈ 112 µM) | 42 (≈ 112 µM) | hardly soluble | Soluble | > 100 | > 100 | > 100 | > 100 | CC1C=CC2CCCCC2C1C(=O)C1(O)C(=O)N2CCC3C(=O)OC1C32O (centres unmarked) [UCS1025B]
